Values of other authors as cited in patent US20190151246A1, “DELAYED-RELEASE TABLETS OF METHYLPHENIDATE” (PRODUCTS & TECHNOLOGY, S.L., priority 2016, published 2019).

## COC(=O)C(c1ccccc1)C1CCCCN1 (centres unmarked) [methylphenidate, methyl 2-phenyl-2-(2-piperidyl)acetate]
children, estimated
  half-life in children: approximately 2.5 hours
In vivo
  half-life: 2 to 4 h
